Assays:
EL-4-HHD target cells = assay: Immunogenicity in HHD mice after immunization with single peptide-loaded RMAS-HHD-B7.1 cells; type: in vivo; details: single peptide immunization i.p. three times; E:T 100:1 to 12.5:1
Protocol: FIGS. 14A and 14B are graphs showing immunogenicity of PAP-3 (FIG. 14A) and STEAP-3 (FIG. 14B) peptides in HHD mice. Mice immunized i.p. three times at 7-day intervals, with 2×10^6 irradiated (5000 rad) were single peptide-loaded (PAP-3 for FIG. 14A, STEAP-3 for FIG. 14B) TAP-2 deficient RMAS-HHD-B7.1 cells. Spleens were removed on day 10, and splenocytes were restimulated in vitro by 100 μM PAP-3 or STEAP-3 peptides in OPTIMEM for 2 h at 37° C., 5% CO2, followed by restimulation of lymphocytes for 4 more days in RPMI-HEPES, as described. CTL assays were performed on day 5 with PAP-3 or STEAP-3 loaded on EL4-HHD as targets. Unloaded EL4-HHD or non-relevant HIV derived peptide-loaded EL4-HHD cells were used as negative controls. The effector-to-target ratios of 100:1; 50:1; 25:1; 12.5:1 are shown.
The immunogenicity of the peptides, namely their potential to induce T cell responses, was subsequently examined in an in vivo model. A strain of β2 microglobulin (β2m) HLA-A2.1 Monochain Transgenic, H-2D^b−/−Xβ2m^−/− double knockout mice (HHD mice) was used. Upon vaccination of these mice, a repertoire of human HLA-A2.1 restricted CTLs is produced. The lysis patterns of each of the individual peptides loaded on target cells were first evaluated following immunization with syngeneic dendritic cells pulsed with pools of 2-4 synthetic peptides derived from each examined protein.

T2 cells = assay: In vitro priming of human CTL with prostate peptides, cytolytic assay on peptide pulsed T2 cells; type: cell-based; details: for existence of peripheral CTL precursors in healthy individuals: peripheral blood of healthy individuals; for activation of CTL precursors in PBMC derived from CaP patients and healthy donors: three healthy and two CaP individuals
Protocol: FIGS. 16A-16D are graphs showing in vitro priming of human CTLs. PBMC of leukopheresis samples were isolated and in vitro CTL primed with peptide pulsed autologous DC. PBMC were supplemented with IL-7 and two days later IL-2 was added and renewed every three days. Additional two cycles of re-stimulation were done every 7 days over peptide pulsed monocytes. Seven days after the last stimulation cytolytic assay was performed using peptide pulsed or non-pulsed T2 cells as target. In FIG. 16A, PBMC derived from CaP individual (donor A) were primed and re-stimulated with STEAP-3 pulsed DC/monocytes. Target cells: relevant (STEAP-3) and non-relevant peptide (HIV-derived, PAP-3) pulsed T2 cells. In FIG. 16B, PBMC derived from healthy individual (donor B) were primed and restimulated with PAP-3 pulsed DC/monocytes. Target cells: relevant (PAP-3) and non-relevant peptide (HIV-derived, STEAP-3) pulsed T2 cells. PBMC derived from healthy individual (donor C) were primed and restimulated with either PAP-3 (C-1; FIG. 16C) or STEAP-3 (C-2; FIG. 16D) pulsed DC/monocytes. Relevant (PAP-3 or STEAP-3) peptide pulsed and non-pulsed T2 cells were used as targets.
FIGS. 17A-17C are graphs showing peptide specific CTL induced in human PBMC by PAP-3 (FIG. 17A), STEAP-3 (FIG. 17B), and PSGR-1 (FIG. 17C). PBMC from a healthy donor were stimulated by peptide pulsed DC as described and CTL activity was tested on homologous peptide pulsed T2 target cells (HLA-A2 lymphoma, TAP deficient).
Finally, peripheral blood of two healthy (donors B, C) and one CaP (donor A) individuals were tested for the existence of CTL precursors (FIGS. 16A-16D). Leukopheresis products of the donors were obtained from Barzilai Medical Center (Ashkelon, Israel) according to Declaration of Helsinki Principles. PBMC were isolated by centrifugation on Ficoll-Plaque Plus gradients (Amersham, Sweden). In vitro priming of CTL was done over autologous DC that were prepared from monocytes by IL-4 and GM-CSF treatment and maturated with a IL-1β, IL-6, TNF-α and PGE2 cocktail. DC were pulsed with synthetic peptides and PBMC were supplemented with IL-7. Two days later, IL-2 was added and renewed every three days. Two additional re-stimulations were done every 7 days over peptide pulsed monocytes. Seven days after the third stimulation, lymphocytes were harvested and a cytolytic assay was performed using relevant/non-relevant peptide pulsed or non-pulsed at all T2 cells.
When human PBMC are stimulated in vitro by PAP-3 and STEAP-3 peptides, the resulting CTL can lyse target cells (T2, EL4/HHD) pulsed with PAP-3, STEAP-3 or PSGR-1 and PSGR-6 peptides. (FIGS. 15 and 16). Here, these findings were expanded and peripheral blood of three healthy and two CaP individuals was tested for the existence of CTL precursors against PAP-3, STEAP-3 and PSGR-1 peptides. Leukopheresis products of the donors were obtained from Barzilai Medical Center (Ashkelon, Israel) according to Declaration of Helsinki Principles. PBMC were isolated by centrifugation on Ficoll-Plaque Plus gradients (Amersham, Sweden). In vitro priming of CTL was done over autologous DC that were prepared from monocytes by IL-4 and GM-CSF treatment and matured with a IL-1β, IL-6, TNF-α and PGE2 cocktail. DC were pulsed with synthetic peptides and PBMC were supplemented with IL-7. Two days later, IL-2 was added and renewed every three days. Two additional re-stimulations were done every 7 days over peptide pulsed monocytes. Seven days after the third stimulation, lymphocytes were harvested and a cytolytic assay was performed using relevant/non-relevant peptide pulsed or non-pulsed T2 cells (FIGS. 17A-17C) and LNCaP (high and low HLA expressors) cells as targets (FIGS. 18A-18E). […] Monitoring of HLA-A2-peptide specific CD8+ cells for PAP-3 and STEAP-3 was also performed by MHC-peptide tetramers (tetramers of recombinant HLA-A2.1-beta2 microglobulin single chain with peptides were prepared in collaboration with Dr Yoram Reiter, Technion, Haifa). […]

[1] = test system: HLA-A2-peptide specific CD8+ cells; assay: MHC-peptide tetramer monitoring of HLA-A2-peptide specific CD8+ cells; type: cell-based, human; details: stimulated PBMC, MHC-peptide tetramers

| Sequence | lysis of peptide-loaded EL-4-HHD target cells (EL-4-HHD target cells) | existence of peripheral CTL precursors in healthy individuals (T2 cells) | activation of CTL precursors in PBMC derived from CaP patients and healthy donors (T2 cells) | Levels of HLA-A2-peptide specific CD8+ cells [1] [%] | activation of CTL precursors in PBMC derived from CaP individual (T2 cells; donor A) |
| --- | --- | --- | --- | --- | --- |
| ILLWQPIPV (listed as Homo sapiens) [PAP-3, PAP start position 135] | remarkable and dose-dependent lysis | 2 out of 2 | activated CTL precursors | 1.7 |  |
| LLLGTIHAL (listed as Homo sapiens) [STEAP-3, STEAP start position 262] | remarkable and dose-dependent lysis | 1 out of 2 | activated CTL precursors | 0.76 | activated peripheral CTL precursors |
